Measurements taken from patent publication US8076487B2, “Pyridone derivative and herbicide” (Kumiai Chemical Industry Co., Ltd., priority 2006, dated 2011).

Legend:
Assay type in all cases: in vivo
[1] = system: early watergrass (Echinochloa oryzicola Vasing); experiment: Test Example 1: herbicidal effect by soil application to paddy field; conditions: paddy field soil application; active ingredient 1,000 g per 1 hectare; wettable powder added dropwise to water surface the day after sowing; examined on the 21st day after application
How it was run: (§1)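 Plants were sown in flooded (3 cm) paddy soil and evaluated for herbicidal effect 21 days after soil application in a greenhouse.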

[2] = system: heartshape false pickerelweed (Monochoria vaginalis (Burm.f.) C.Presl); experiment: as above; conditions: paddy field soil application; active ingredient 1,000 g per 1 hectare; wettable powder added dropwise to water surface the day after sowing; examined on the 21st day after application
How it was run: as §1

[3] = system: Japanese bulrush (Scirpus juncoides Roxb.); experiment: as above; conditions: paddy field soil application; active ingredient 1,000 g per 1 hectare; wettable powder added dropwise to water surface the day after sowing; examined on the 21st day after application
How it was run: as §1

[4] = system: slender amaranth (Amaranthus viridis L.); experiment: Test Example 2: herbicidal effect by soil application to upland field; conditions: soil surface spray, upland field soil, 1,000 g active ingredient per hectare, 21st day after application
How it was run: (§2)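 Pre-emergence soil test: seeds sown in pots of field soil, then wettable-powder formulation sprayed on soil surface at 1,000 g active ingredient per hectare in 1,000 L water per hectare. Plants grown in greenhouse; herbicidal effect scored on a standard scale at day 21.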

[5] = system: green foxtail (Setaria viridis (L.) P. Beauv.); experiment: as above; conditions: soil surface spray, upland field soil, 1,000 g active ingredient per hectare, 21st day after application
How it was run: as §2

[6] = system: velvetleaf (Abutilon theophrasti medicus); experiment: as above; conditions: soil surface spray, upland field soil, 1,000 g active ingredient per hectare, 21st day after application
How it was run: as §2

[7] = system: barnyardgrass (Echinochloa crus-galli (L.) P. Beauv. var. crus-galli); experiment: as above; conditions: soil surface spray, upland field soil, 1,000 g active ingredient per hectare, 21st day after application
How it was run: as §2

[8] = system: slender amaranth (Amaranthus viridis L.); experiment: Test Example 3: herbicidal effect by application to upland field (foliage treatment); conditions: 14th day after application; for herbicidal effect, Slender Amaranth: foliage treatment, 1,000 g active ingredient per 1 hectare, greenhouse; for herbicidal effect (index), Slender Amaranth: foliage treatment, plants grown two weeks, 1,000 g active ingredient per hectare
How it was run: (§3)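 Post-emergence spray at 1,000 g AI/ha of wettable powder in water (1,000 L/ha), onto seedlings grown 2 weeks in greenhouse field-soil pots. Graded day 14.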

[9] = system: green foxtail (Setaria viridis (L.) P. Beauv.); experiment: as above; conditions: 14th day after application; for herbicidal effect, Green Foxtail: foliage treatment, 1,000 g active ingredient per 1 hectare, greenhouse; for herbicidal effect (index), Green Foxtail: foliage treatment, plants grown two weeks, 1,000 g active ingredient per hectare
How it was run: as §3

[10] = system: velvetleaf (Abutilon theophrasti medicus); experiment: as above; conditions: 14th day after application; for herbicidal effect, Velvetleaf: foliage treatment, 1,000 g active ingredient per 1 hectare, greenhouse; for herbicidal effect (index), Velvetleaf: foliage treatment, plants grown two weeks, 1,000 g active ingredient per hectare
How it was run: as §3

[11] = system: barnyardgrass (Echinochloa crus-galli (L.) P. Beauv. var. crus-galli); experiment: as above; conditions: 14th day after application; for herbicidal effect, Barnyardgrass: foliage treatment, 1,000 g active ingredient per 1 hectare, greenhouse; for herbicidal effect (index), Barnyardgrass: foliage treatment, plants grown two weeks, 1,000 g active ingredient per hectare
How it was run: as §3

Row | SMILES | herbicidal effect, Echinochloa oryzicola Vasing [1] | herbicidal effect, Monochoria vaginalis (Burm. f.) C. Presl [2] | herbicidal effect, Scirpus juncoides Roxb. [3] | herbicidal effect (index), Slender Amaranth [4] | herbicidal effect (index), Green Foxtail [5] | herbicidal effect (index), Velvetleaf [6] | herbicidal effect (index), Barnyardgrass [7] | herbicidal effect, Slender Amaranth [8] | herbicidal effect, Green Foxtail [9] | herbicidal effect, Velvetleaf [10] | herbicidal effect, Barnyardgrass [11] | herbicidal effect (index), Slender Amaranth [8] | herbicidal effect (index), Green Foxtail [9] | herbicidal effect (index), Velvetleaf [10] | herbicidal effect (index), Barnyardgrass [11]
1 | O=C(C1=C(O)C2CCC(C2)C1=O)c1ccc(C(F)(F)F)n(C2CCCC2)c1=O (stereo not shown) [III-11] | 5 (90% or more of herbicidal effect and crop phytotoxicity) | 5 (90% or more of herbicidal effect and crop phytotoxicity) | 5 (90% or more of herbicidal effect and crop phytotoxicity) | 5 (90% or more of herbicidal effect and crop phytotoxicity) | 4 (70 to less than 90% of herbicidal effect and crop phytotoxicity) | 5 (90% or more of herbicidal effect and crop phytotoxicity) | 4 (70 to less than 90% of herbicidal effect and crop phytotoxicity) | 5 (90% or more of herbicidal effect and crop phytotoxicity) | 5 (90% or more of herbicidal effect and crop phytotoxicity) | 5 (90% or more of herbicidal effect and crop phytotoxicity) | 5 (90% or more of herbicidal effect and crop phytotoxicity) |  |  |  | 
2 | CCn1c(C(F)(F)F)ccc(C(=O)c2cnn(C)c2O)c1=O [IV-2] | 5 (90% or more of herbicidal effect and crop phytotoxicity) | 5 (90% or more of herbicidal effect and crop phytotoxicity) | 5 (90% or more of herbicidal effect and crop phytotoxicity) | 5 (90% or more of herbicidal effect and crop phytotoxicity) | 5 (90% or more of herbicidal effect and crop phytotoxicity) | 5 (90% or more of herbicidal effect and crop phytotoxicity) | 5 (90% or more of herbicidal effect and crop phytotoxicity) | 5 (90% or more of herbicidal effect and crop phytotoxicity) | 5 (90% or more of herbicidal effect and crop phytotoxicity) | 5 (90% or more of herbicidal effect and crop phytotoxicity) | 5 (90% or more of herbicidal effect and crop phytotoxicity) |  |  |  | 
3 | Cn1ncc(C(=O)c2ccc(C(F)(F)F)n(CC3CCOC3)c2=O)c1O (stereo not shown) [IV-143] | 5 (90% or more of herbicidal effect and crop phytotoxicity) | 5 (90% or more of herbicidal effect and crop phytotoxicity) | 5 (90% or more of herbicidal effect and crop phytotoxicity) | 5 (90% or more of herbicidal effect and crop phytotoxicity) | 5 (90% or more of herbicidal effect and crop phytotoxicity) | 5 (90% or more of herbicidal effect and crop phytotoxicity) | 5 (90% or more of herbicidal effect and crop phytotoxicity) | 5 (90% or more of herbicidal effect and crop phytotoxicity) | 5 (90% or more of herbicidal effect and crop phytotoxicity) | 5 (90% or more of herbicidal effect and crop phytotoxicity) | 5 (90% or more of herbicidal effect and crop phytotoxicity) |  |  |  | 
4 | CCCn1c(C(F)(F)F)c(C)cc(C(=O)C2=C(O)C3CCC(C3)C2=O)c1=O (stereo not shown) [III-18] | 5 (90% or more of herbicidal effect and crop phytotoxicity) | 5 (90% or more of herbicidal effect and crop phytotoxicity) | 5 (90% or more of herbicidal effect and crop phytotoxicity) | 5 (90% or more of herbicidal effect and crop phytotoxicity) | 3 (50 to less than 70% of herbicidal effect and crop phytotoxicity) | 5 (90% or more of herbicidal effect and crop phytotoxicity) | 5 (90% or more of herbicidal effect and crop phytotoxicity) | 5 (90% or more of herbicidal effect and crop phytotoxicity) | 5 (90% or more of herbicidal effect and crop phytotoxicity) | 5 (90% or more of herbicidal effect and crop phytotoxicity) | 5 (90% or more of herbicidal effect and crop phytotoxicity) |  |  |  | 
5 | O=C1CCCC(O)=C1C(=O)c1ccc(C(F)(F)F)n(-c2ccc(F)c(F)c2)c1=O [I-105] | 5 (90% or more of herbicidal effect and crop phytotoxicity) | 5 (90% or more of herbicidal effect and crop phytotoxicity) | 5 (90% or more of herbicidal effect and crop phytotoxicity) | 5 (90% or more of herbicidal effect and crop phytotoxicity) | 5 (90% or more of herbicidal effect and crop phytotoxicity) | 5 (90% or more of herbicidal effect and crop phytotoxicity) | 5 (90% or more of herbicidal effect and crop phytotoxicity) |  |  |  |  | 5 (90% or more of herbicidal effect and crop phytotoxicity) | 5 (90% or more of herbicidal effect and crop phytotoxicity) | 5 (90% or more of herbicidal effect and crop phytotoxicity) | 5 (90% or more of herbicidal effect and crop phytotoxicity)
6 | O=C1CCCC(O)=C1C(=O)c1ccc(C(F)(F)F)n(-c2ccccc2Cl)c1=O [I-73] | 5 (90% or more of herbicidal effect and crop phytotoxicity) | 5 (90% or more of herbicidal effect and crop phytotoxicity) | 5 (90% or more of herbicidal effect and crop phytotoxicity) | 5 (90% or more of herbicidal effect and crop phytotoxicity) | 5 (90% or more of herbicidal effect and crop phytotoxicity) | 5 (90% or more of herbicidal effect and crop phytotoxicity) | 5 (90% or more of herbicidal effect and crop phytotoxicity) |  |  |  |  | 5 (90% or more of herbicidal effect and crop phytotoxicity) | 4 (70 to less than 90% of herbicidal effect and crop phytotoxicity) | 5 (90% or more of herbicidal effect and crop phytotoxicity) | 5 (90% or more of herbicidal effect and crop phytotoxicity)
7 | Cc1nn(C)c(O)c1C(=O)c1ccc(C(F)(F)F)n(-c2cc(F)cc(F)c2)c1=O [IV-81] | 5 (90% or more of herbicidal effect and crop phytotoxicity) | 5 (90% or more of herbicidal effect and crop phytotoxicity) | 3 (50 to less than 70% of herbicidal effect and crop phytotoxicity) | 5 (90% or more of herbicidal effect and crop phytotoxicity) | 5 (90% or more of herbicidal effect and crop phytotoxicity) | 5 (90% or more of herbicidal effect and crop phytotoxicity) | 5 (90% or more of herbicidal effect and crop phytotoxicity) | 5 (90% or more of herbicidal effect and crop phytotoxicity) | 4 (70 to less than 90% of herbicidal effect and crop phytotoxicity) | 5 (90% or more of herbicidal effect and crop phytotoxicity) | 4 (70 to less than 90% of herbicidal effect and crop phytotoxicity) |  |  |  | 
8 | COc1ccc(-n2c(C(F)(F)F)ccc(C(=O)C3=C(O)CCCC3=O)c2=O)cc1F [I-109] | 4 (70 to less than 90% of herbicidal effect and crop phytotoxicity) | 5 (90% or more of herbicidal effect and crop phytotoxicity) | 5 (90% or more of herbicidal effect and crop phytotoxicity) | 5 (90% or more of herbicidal effect and crop phytotoxicity) | 5 (90% or more of herbicidal effect and crop phytotoxicity) | 5 (90% or more of herbicidal effect and crop phytotoxicity) | 5 (90% or more of herbicidal effect and crop phytotoxicity) | 5 (90% or more of herbicidal effect and crop phytotoxicity) | 4 (70 to less than 90% of herbicidal effect and crop phytotoxicity) | 5 (90% or more of herbicidal effect and crop phytotoxicity) | 5 (90% or more of herbicidal effect and crop phytotoxicity) |  |  |  | 
